Measurements reported in patent CN110668932A, “一种共晶体及制备方法、包含共晶体的药物组合物及用途” (Individual, priority 2019, dated 2020).

How the values were obtained:
[1] = tested on: human gastric cancer SGC-7901 cells, human liver cancer Bet-7402 cells, human lung cancer H460 cells (人胃癌SGC-7901细胞、人肝癌Bet-7402细胞、人肺癌H460细胞); experiment: In vivo antitumour experiment in mice (Experimental Example 1); set-up: species or system mouse; conditions: 2 mg/kg active ingredient, oral, twice daily, 15-20 days; for tumor size / weight vs negative control group: compared with negative control group; for tumor inhibition effect: mice
[2] = Liver injury side effect experiment in mice, ALT and AST (Experimental Example 5); type: in vivo, mouse; conditions: 0.012 g/kg, gavage, 2 weeks, Kunming mice; for ALT / ASL: serum, compared with normal control group
[3] = tested on: metabolic syndrome model rats (代谢综合征模型大鼠); experiment: Effect in metabolic syndrome model rats (Experimental Example 4); type: in vivo, rat; conditions: 10 mL/kg, once daily, gavage, 8 weeks; for serum LDL-C level vs control group / serum TG level vs control group: compared with control group (standard feed); for serum LDL-C level vs model group / serum TG level vs model group: compared with model group

Compound	tumor size / weight vs negative control group [1]	tumor inhibition effect [1]	liver injury effect [2]	ALT [2]	ASL [2]	serum LDL-C level vs control group [3]	serum TG level vs control group [3]	serum LDL-C level vs model group [3]	serum TG level vs model group [3]
COc1cc(CCC(=O)CC(=O)CCc2ccc(O)c(OC)c2)ccc1O [SHCUR, 四氢姜黄素]	肿瘤明显减小,低于阴性对照组	具有较好的抑制肿瘤的效果	没有明显肝损伤作用	与正常对照组相近	与正常对照组相近	较高	较高	较低	较低
COc1cc(CCC(=O)CC(=O)CCc2ccc(O)cc2)ccc1O [SHDMCUR, 四氢去甲氧基姜黄素]	肿瘤明显减小,低于阴性对照组	具有较好的抑制肿瘤的效果	没有明显肝损伤作用	与正常对照组相近	与正常对照组相近	较高	较高	较低	较低
O=C(CCc1ccc(O)cc1)CC(=O)CCc1ccc(O)cc1 [四氢双去甲氧基姜黄素]	肿瘤明显减小,低于阴性对照组	具有较好的抑制肿瘤的效果	没有明显肝损伤作用	与正常对照组相近	与正常对照组相近	较高	较高	较低	较低
CC(=O)O[C@H]1C(=O)[C@@]2(C)[C@H]([C@H](OC(=O)c3ccccc3)[C@]3(O)C[C@H](OC(=O)[C@H](O)[C@@H](NC(=O)c4ccccc4)c4ccccc4)C(C)=C1C3(C)C)[C@]1(OC(C)=O)CO[C@@H]1C[C@@H]2O [紫杉醇]	肿瘤明显减小,低于阴性对照组	具有较好的抑制肿瘤的效果	–	–	–	–	–	–	–
